Tests used:
[1] = test system: Enterovirus 71 (EV71) H strain; experiment: In vitro anti-EV71 activity (antiviral activity in RD cells, CellTiter-Glo); type: cell-based; conditions: for IC50: Enterovirus A, 96 h, EV71 H strain, RD cells, 4 days, CellTiter-Glo, read-out: IC50; for in vitro anti-EV71 activity, in words: EV71, RD cells
Experimental: According to the mass and molecular weight of the compound to be tested, the compound to be tested was dissolved to 100 mM (mmol/L) with DMSO.
Detection of Antiviral Activity:
(1) First, the compound to be tested was diluted to 800 μM with cell maintenance solution (DMEM+2% FBS, Gibco, catalog numbers: 11995-065, 1600-044), and three-fold gradient dilution was performed to prepare 10 concentrations in total. The diluted compound was added to a 96-well plate with white wall and transparent bottom, 50 μl per well. To both the cell control group and the virus control group, an equal volume of the cell maintenance solution was added.
(2) EV71 virus (purchased from ATCC) was taken out from the −80° C. refrigerator and equilibrated to room temperature.
(3) The virus seed was diluted with a virus growth solution (DMEM+2% FBS, Gibco, catalog numbers: 11995-065, 1600-044) to 100TCID50, the diluted virus seed was added to the 96-well plate of (1), with […] per well. The same volume of the virus growth solution was added to the cell control group.
(4) RD cells (purchased from ATCC) were inoculated at a concentration of 1*10^5/mL into the 96-well plate of (1), with 100 μL per well, to reach a final volume of 200 μL per well. The final concentration of drug was 0.25 times the initial concentration.
(5) RD cells were cultured at 37° C. for 4 days for testing.
(6) The Buffer of CellTiter-Glo® luminescent cell viability assay reagent (Promega) was mixed with the substrate in the dark to prepare a working solution.
(§1) (7) The culture medium in the plate was discarded, the plate was dried by patting, 100 μL of the detection reagent was added to each well, and the 96-well plate was shaken on an orbital shaker for 4 minutes to induce cell lysis. After keeping in the dark and subjecting to signal stabilization for 15 minutes, the chemiluminescence unit was detected by using MD5 microplate reader (Molecular Devices), and the plate reading program was performed according to the CellTiter-Glo preset program.
The inhibition rate-concentration curve was fitted to S-curve by using origin8.0 software to calculate the IC50 value of the compound to be tested.
(§2) The formula for calculating the inhibition rates of drug at different dilution degrees was as follows: inhibition rate (%)=(average value of cell control group−value of experimental group)/(average value of cell control group−minimum value of experimental group)*100
(§3) The inhibition rate-concentration curve was fitted to S-curve by using origin8.0 software, and the IC50 value of the compound to be tested was calculated. The same method was used to calculate the TD50 value, and the selection index SI=TD50/IC50 was calculated according to the half maximal inhibitory concentration IC50 and the median toxic dose TD50.

[2] = test system: RD cells; experiment: Detection of cytotoxicity in RD cells (CellTiter-Glo); type: cell-based; conditions: 4 days, CellTiter-Glo, median toxic dose
Experimental: Detection of Cytotoxicity:
(1) The compound to be tested was diluted to a concentration of 400 μM with the cell maintenance solution, and 3-fold gradient dilution was carried out to obtain 10 concentrations in total.
(2) The diluted compound was added to a 96-well plate with white wall and transparent bottom, with 100 μL per well. An equal volume of the cell maintenance solution was added to the cell control group.
(3) RD cells were inoculated into the above 96-well plate at a concentration of 1*10^5/mL, with 100 μL per well, to reach a final volume of 200 μL per well, and the final concentration of drug was 0.5 times the pretreatment concentration.
(4) The RD cells were cultured at 37° C. for 4 days for testing.
(5) The Buffer of CellTiter-Glo® luminescent cell viability assay reagent was mixed with the substrate in the dark to prepare a working solution.
as §1, with “(6)” for “(7)”, “detected,” for “detected by using MD5 microplate reader (Molecular Devices),”
as §2, §3

Row | SMILES | IC50 [1] [µM] | TD50 [2] [µM] | melting point [°C] | in vitro anti-EV71 activity, in words [1]
1 | O=c1oc2cnc3ccc(-c4ccc(F)nc4)cc3c2n1-c1cccc(C(F)(F)F)c1 [HTL-5-28, 8-[3-(6-fluoro)pyridyl]-1-[3-(trifluoromethyl)phenyl]oxazolo[5,4-c]quinolin-2(1H)-one] | > 200 | >200 | 262 to 263 | –
2 | CC(=O)/C=C/c1cnc2ccc(-c3ccc(N)nc3)cc2c1Nc1cccc(C(F)(F)F)c1 [HTL-2-34, (E)-6-[3-(6-amino)pyridyl]-4-[3-(trifluoromethyl)phenyl]aminoquinoline-3-butenone] | 1.78 ± 0.03 | 4.99 ± 1.55 | 172 to 175 | moderate anti-EV71 activity
3 | Nc1ccc(-c2ccc3ncc4oc(=O)n(-c5cccc(C(F)(F)F)c5)c4c3c2)cn1 [HTL-4-32, 8-[3-(6-amino)pyridyl]-1-[3-(trifluoromethyl)phenyl]oxazolo[5,4-c]quinolin-2(1H)-one] | 5.57 ± 1.53 | 14.5 ± 6.4 | 146 to 147 | moderate inhibitory activity
4 | NC(=O)NC/C=C/c1ccc2ncc3ccc(=O)n(-c4cccc(C(F)(F)F)c4)c3c2c1 [HTL-7-25, (E)-9-[3-ureido-propenyl]-2-oxo-1-[3-(trifluoromethyl)phenyl]-1,2-dihydrobenzo[h][1,6]naphthyridine] | 0.41 ± 0.03 | 4.42 ± 0.45 | 150 to 151 | moderate inhibitory activity
5 | N#CC/C=C/c1ccc2ncc3oc(=O)n(-c4cccc(C(F)(F)F)c4)c3c2c1 [HTL-6-31, (E)-8-(3-cyano-propenyl)-1-[3-(trifluoromethyl)phenyl]oxazolo[5,4-c]quinolin-2(1H)-one] | > 200 | 9.20 ± 2.34 | 177 to 179 | –
6 | O=c1ccc2cnc3ccc(Nc4ccc(Cl)cc4)cc3c2n1-c1cccc(C(F)(F)F)c1 [HTL-6-25, 9-(4-chlorophenyl)imino-2-oxo-1-[3-(trifluoromethyl)phenyl]-1,2-dihydrobenzo[h][1,6]naphthyridine] | > 200 | 4.56 ± 0.26 | 212 to 213 | –
7 | N#Cc1cncc(-c2ccc3ncc4oc(=O)n(-c5cccc(C(F)(F)F)c5)c4c3c2)c1 [HTL-5-36, 8-[3-(5-cyano)pyridyl]-1-[3-(trifluoromethyl)phenyl]oxazolo[5,4-c]quinolin-2(1H)-one] | > 200 | 13.41 ± 0.18 | 262 to 263 | –
8 | CC(=O)/C=C/c1cnc2ccc(-c3ccc(C#N)cc3)cc2c1Nc1cccc(C(F)(F)F)c1 [HTL-3-15, (E)-6-(4-cyano)phenyl-4-[3-(trifluoromethyl)phenyl]aminoquinoline-3-butenone] | > 200 | >200 | 173 to 174 | –
9 | CC(C)(C)OC(=O)/C=C/c1ccc2ncc3oc(=O)n(-c4cccc(C(F)(F)F)c4)c3c2c1 [HTL-6-35, (E)-8-(2-tert-butoxycarbonyl-vinyl)-1-[3-(trifluoromethyl)phenyl]oxazolo[5,4-c]quinolin-2(1H)-one] | > 200 | 76.02 ± 11.52 | 186 to 187 | –
10 | CC(=O)/C=C/c1cnc2ccc(-c3cn[nH]c3)cc2c1Nc1cccc(C(F)(F)F)c1 [HTL-3-26, (E)-6-(1H-4-pyrazolyl)-4-[3-(trifluoromethyl)phenyl]aminoquinoline-3-butenone] | 0.85 ± 0.03 | 1.43 ± 1.62 | 177 to 179 | moderate anti-EV71 activity
11 | C=CCNc1ccc(-c2ccc3ncc4ccc(=O)n(-c5cccc(C(F)(F)F)c5)c4c3c2)cn1 [HTL-7-28, 9-[3-(6-allylamino)pyridyl]-2-oxo-1-[3-(trifluoromethyl)phenyl]-1,2-dihydrobenzo[h][1,6]naphthyridine] | 0.09 ± 0.01 | 0.23 ± 0.01 | 142 to 146 | –

From patent US20220220106A1, “QUINOLINE COMPOUNDS AND PHARMACEUTICAL COMPOSITIONS AND USES THEREOF” (Academy of Military Medical Sciences, priority 2019, published 2022)
